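Compound exposure: 48 hours, 5 concentrations, 96-well plates. GI50: concentration for 50% inhibition of growth. TGI: concentration producing complete growth inhibition.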
Experiments:
Test in all cases: NCI-60 cell line screen, 48 h
[1] = test system: 786-0 renal
[2] = test system: A498 renal
[3] = test system: A549 NSCLC
[4] = test system: ACHN renal
[5] = test system: CAKI-1 renal
[6] = test system: CCRF-CEM leukemia
[7] = test system: DLD-1 colon
[8] = test system: DMS 114 small cell lung
[9] = test system: DMS 273 small cell lung
[10] = test system: EKVX NSCLC
[11] = test system: HCC-2998 colon
[12] = test system: HCT-116 colon
[13] = test system: HCT-15 colon
[14] = test system: HL-60(TB) leukemia
[15] = test system: HOP-18 NSCLC
[16] = test system: HOP-62 NSCLC
[17] = test system: HOP-92 NSCLC
[18] = test system: HT29 colon
[19] = test system: IGROV1 ovarian
[20] = test system: K-562 leukemia
[21] = test system: KM12 colon
[22] = test system: KM20L2 colon
[23] = test system: LOX IMVI melanoma
[24] = test system: LXFL 529 NSCLC
[25] = test system: M14 melanoma
[26] = test system: M19-MEL melanoma
[27] = test system: MALME-3M melanoma
[28] = test system: MOLT-4 leukemia
[29] = test system: NCI-H226 lung
[30] = test system: NCI-H23 lung
[31] = test system: NCI-H460 lung
[32] = test system: NCI-H522 lung
[33] = test system: OVCAR-4 ovarian
[34] = test system: OVCAR-5 ovarian
[35] = test system: OVCAR-8 ovarian
[36] = test system: RPMI-8226 leukemia
[37] = test system: RXF 393 renal
[38] = test system: SF-268 CNS
[39] = test system: SF-295 CNS
[40] = test system: SF-539 CNS
[41] = test system: SK-MEL-2 melanoma
[42] = test system: SK-MEL-28 melanoma
[43] = test system: SK-MEL-5 melanoma
[44] = test system: SK-OV-3 ovarian
[45] = test system: SN12C renal
[46] = test system: SNB-19 CNS
[47] = test system: SNB-75 CNS
[48] = test system: SNB-78 CNS
[49] = test system: SR leukemia
[50] = test system: SW-620 colon
[51] = test system: TK-10 renal
[52] = test system: U251 CNS
[53] = test system: UACC-257 melanoma
[54] = test system: UACC-62 melanoma
[55] = test system: UO-31 renal
[56] = test system: XF 498 CNS
[57] = test system: COLO 205 colon
[58] = test system: OVCAR-3 ovarian
[59] = test system: RXF-631 renal

For `CN(C)c1n/c(=N/c2ncn[nH]2)ss1`, the TGI [1] was > 100000 nM, the TGI [2] was > 100000 nM and the TGI [3] was > 100000 nM. The TGI [4] was > 100000 nM, the TGI [5] was > 100000 nM and the TGI [6] was > 100000 nM. The TGI [7] was > 100000 nM, the TGI [8] was > 100000 nM and the TGI [9] was > 100000 nM. For the same molecule, the TGI [10] was > 100000 nM, the TGI [11] was > 100000 nM and the TGI [12] was > 100000 nM. For the same molecule, the TGI [13] was > 100000 nM, the TGI [14] was > 100000 nM and the TGI [15] was > 100000 nM. For the same molecule, the TGI [16] was > 100000 nM, the TGI [17] was > 100000 nM and the TGI [18] was > 100000 nM. The TGI [19] was > 100000 nM, the TGI [20] was > 100000 nM and the TGI [21] was > 100000 nM. The TGI [22] was > 100000 nM, the TGI [23] was > 100000 nM and the TGI [24] was > 100000 nM. The TGI [25] was > 100000 nM, the TGI [26] was > 100000 nM and the TGI [27] was > 100000 nM. The TGI [28] was > 100000 nM, the TGI [29] was > 100000 nM and the TGI [30] was > 100000 nM. The TGI [31] was > 100000 nM, the TGI [32] was > 100000 nM and the TGI [33] was > 100000 nM. The TGI [34] was > 100000 nM, the TGI [35] was > 100000 nM and the TGI [36] was > 100000 nM. For the same molecule, the TGI [37] was > 100000 nM, the TGI [38] was > 100000 nM and the TGI [39] was > 100000 nM. For the same molecule, the TGI [40] was > 100000 nM, the TGI [41] was > 100000 nM and the TGI [42] was > 100000 nM. For the same molecule, the TGI [43] was > 100000 nM, the TGI [44] was > 100000 nM and the TGI [45] was > 100000 nM. For the same molecule, the TGI [46] was > 100000 nM, the TGI [47] was > 100000 nM and the TGI [48] was > 100000 nM. For the same molecule, the TGI [49] was > 100000 nM, the TGI [50] was > 100000 nM and the TGI [51] was > 100000 nM. The TGI [52] was > 100000 nM, the TGI [53] was > 100000 nM and the TGI [54] was > 100000 nM. For the same molecule, the TGI [55] was > 100000 nM and the TGI [56] was > 100000 nM.
For `O=C(O)Cn1c(=O)[nH]c(=O)c2c1ncn2Cc1ccccc1`, the TGI [1] was > 100000 nM, the TGI [2] was > 100000 nM and the TGI [3] was > 100000 nM. The TGI [4] was > 100000 nM, the TGI [5] was > 100000 nM and the TGI [6] was > 100000 nM. The TGI [57] was > 100000 nM, the TGI [7] was > 100000 nM and the TGI [8] was > 100000 nM. The TGI [9] was > 100000 nM, the TGI [10] was > 100000 nM and the TGI [12] was > 100000 nM. For the same molecule, the TGI [13] was > 100000 nM, the TGI [16] was > 100000 nM and the TGI [17] was > 100000 nM. The TGI [18] was > 100000 nM, the TGI [20] was > 100000 nM and the TGI [21] was > 100000 nM. The TGI [22] was > 100000 nM, the TGI [24] was > 100000 nM and the TGI [25] was > 100000 nM. The TGI [26] was > 100000 nM, the TGI [27] was > 100000 nM and the TGI [28] was > 100000 nM. For the same molecule, the TGI [29] was > 100000 nM, the TGI [30] was > 100000 nM and the TGI [31] was > 100000 nM. For the same molecule, the TGI [32] was > 100000 nM, the TGI [58] was > 100000 nM and the TGI [34] was > 100000 nM. For the same molecule, the TGI [35] was > 100000 nM, the TGI [36] was > 100000 nM and the TGI [59] was > 100000 nM. The TGI [38] was > 100000 nM, the TGI [40] was > 100000 nM and the TGI [41] was > 100000 nM. The TGI [42] was > 100000 nM, the TGI [43] was > 100000 nM and the TGI [44] was > 100000 nM. For the same molecule, the TGI [45] was > 100000 nM, the TGI [46] was > 100000 nM and the TGI [47] was > 100000 nM. For the same molecule, the TGI [48] was > 100000 nM, the TGI [49] was > 100000 nM and the TGI [50] was > 100000 nM. The TGI [51] was > 100000 nM, the TGI [52] was > 100000 nM and the TGI [54] was > 100000 nM. The TGI [55] was > 100000 nM and the TGI [56] was > 100000 nM.
`CCC[CH2][Sn]([CH2]CCC)([O]C(=O)C1CCC(=O)N1)[O]C(=O)C1CCC(=O)N1` (stereo not drawn) gave a GI50 [1] of 196 nM, a TGI [1] of 409 nM and a GI50 [2] of 210 nM. For the same molecule, the TGI [2] was 517 nM, the GI50 [3] was 2010 nM and the TGI [3] was 3640 nM. It also gave a GI50 [4] of 220 nM, a TGI [4] of 512 nM and a GI50 [5] of 75.7 nM. It also gave a TGI [5] of 356 nM, a GI50 [57] of 363 nM and a TGI [57] of 1160 nM. The GI50 [7] was 353 nM, the TGI [7] was 1520 nM and the GI50 [8] was 168 nM. For the same molecule, the TGI [8] was 367 nM, the GI50 [9] was 336 nM and the TGI [9] was 1160 nM. It also gave a GI50 [10] of 264 nM, a TGI [10] of 918 nM and a GI50 [11] of 400 nM. It also gave a TGI [11] of 1590 nM, a GI50 [12] of 786 nM and a TGI [12] of 2040 nM. For the same molecule, the GI50 [13] was 182 nM, the TGI [13] was 353 nM and the GI50 [14] was 157 nM. For the same molecule, the TGI [14] was 445 nM, the GI50 [16] was 619 nM and the TGI [16] was 2040 nM. For the same molecule, the GI50 [17] was 141 nM, the TGI [17] was 575 nM and the GI50 [18] was 588 nM. It also gave a TGI [18] of 2060 nM, a GI50 [19] of 1100 nM and a TGI [19] of 2480 nM. It also gave a GI50 [20] of 138 nM, a TGI [20] of 565 nM and a GI50 [21] of 496 nM. It also gave a TGI [21] of 1730 nM, a GI50 [22] of 446 nM and a TGI [22] of 1690 nM. The GI50 [23] was 152 nM, the TGI [23] was 328 nM and the GI50 [24] was 49.8 nM. The TGI [24] was 188 nM, the GI50 [25] was 200 nM and the TGI [25] was 456 nM. It also gave a GI50 [26] of 244 nM, a TGI [26] of 824 nM and a GI50 [27] of 78.3 nM. For the same molecule, the TGI [27] was 243 nM, the GI50 [28] was 245 nM and the TGI [28] was 755 nM. For the same molecule, the GI50 [29] was 1430 nM, the TGI [29] was 2810 nM and the GI50 [30] was 147 nM. The TGI [30] was 384 nM, the GI50 [31] was 1270 nM and the TGI [31] was 2530 nM. For the same molecule, the GI50 [32] was 26.3 nM, the TGI [32] was 110 nM and the GI50 [58] was 218 nM. For the same molecule, the TGI [58] was 663 nM, the GI50 [33] was 376 nM and the TGI [33] was 1710 nM. The GI50 [34] was 2050 nM, the TGI [34] was 3480 nM and the GI50 [35] was 319 nM. It also gave a TGI [35] of 1010 nM, a GI50 [36] of 124 nM and a TGI [36] of 669 nM. For the same molecule, the GI50 [37] was 300 nM, the TGI [37] was 473 nM and the GI50 [59] was 159 nM. It also gave a TGI [59] of 297 nM, a GI50 [39] of 274 nM and a TGI [39] of 1050 nM. The GI50 [40] was 185 nM, the TGI [40] was 414 nM and the GI50 [41] was 181 nM. For the same molecule, the TGI [41] was 367 nM, the GI50 [42] was 258 nM and the TGI [42] was 654 nM. It also gave a GI50 [43] of 461 nM, a TGI [43] of 1650 nM and a GI50 [44] of 801 nM. It also gave a TGI [44] of 2020 nM, a GI50 [45] of 341 nM and a TGI [45] of 1200 nM. It also gave a GI50 [46] of 303 nM, a TGI [46] of 909 nM and a GI50 [47] of 221 nM. It also gave a TGI [47] of 752 nM, a GI50 [48] of 260 nM and a TGI [48] of 759 nM. For the same molecule, the GI50 [49] was 180 nM, the TGI [49] was 526 nM and the GI50 [50] was 134 nM. The TGI [50] was 307 nM, the GI50 [51] was 240 nM and the TGI [51] was 682 nM. For the same molecule, the GI50 [52] was 164 nM, the TGI [52] was 330 nM and the GI50 [53] was 159 nM. The TGI [53] was 338 nM, the GI50 [54] was 154 nM and the TGI [54] was 331 nM. It also gave a GI50 [55] of 711 nM, a TGI [55] of 1980 nM and a GI50 [56] of 217 nM. For the same molecule, the TGI [56] was 376 nM.

— PubChem BioAssay (NCI)
